For 3 compounds, IC50 results are on record in PMC4813245, “Discovery of Dual ETA/ETB Receptor Antagonists from Traditional Chinese Herbs through in Silico and in Vitro Screening” (International Journal of Molecular Sciences, 2016).

Read-outs that look alike come from different tables or passages of the source. Non-standard residues stand in square brackets, D forms with d. Residues, ends and D or L forms follow the SMILES beside them.

One assay addresses T1, ETA receptor (ETAR) (Homo sapiens, UniProt P25101).
T1 construct: gene EDNRA
T1 sequence (P25101 21-427): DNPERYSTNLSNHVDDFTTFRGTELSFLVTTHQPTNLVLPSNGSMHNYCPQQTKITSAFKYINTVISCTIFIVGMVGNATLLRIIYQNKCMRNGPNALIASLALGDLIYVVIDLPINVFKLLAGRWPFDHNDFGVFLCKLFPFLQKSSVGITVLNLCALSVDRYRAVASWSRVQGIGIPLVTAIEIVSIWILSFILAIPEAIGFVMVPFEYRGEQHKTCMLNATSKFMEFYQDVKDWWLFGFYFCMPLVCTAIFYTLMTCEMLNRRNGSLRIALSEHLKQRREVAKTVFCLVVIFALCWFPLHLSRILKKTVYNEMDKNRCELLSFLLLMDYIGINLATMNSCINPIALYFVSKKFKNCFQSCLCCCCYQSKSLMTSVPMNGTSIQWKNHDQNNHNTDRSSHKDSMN
Nature of the assay: ET-1-induced intracellular calcium mobilization (Fluo-4) in HEK293/ETAR cells, antagonist mode. It counts as cell-based. (In general: Calcium assays in cells follow changes in intracellular calcium, usually with a dye or a luminescent sensor.)

The target in a further assay is T2, ETB receptor (ETBR) (Homo sapiens, UniProt P24530).
T2 construct: gene EDNRB
T2 sequence (P24530 27-442): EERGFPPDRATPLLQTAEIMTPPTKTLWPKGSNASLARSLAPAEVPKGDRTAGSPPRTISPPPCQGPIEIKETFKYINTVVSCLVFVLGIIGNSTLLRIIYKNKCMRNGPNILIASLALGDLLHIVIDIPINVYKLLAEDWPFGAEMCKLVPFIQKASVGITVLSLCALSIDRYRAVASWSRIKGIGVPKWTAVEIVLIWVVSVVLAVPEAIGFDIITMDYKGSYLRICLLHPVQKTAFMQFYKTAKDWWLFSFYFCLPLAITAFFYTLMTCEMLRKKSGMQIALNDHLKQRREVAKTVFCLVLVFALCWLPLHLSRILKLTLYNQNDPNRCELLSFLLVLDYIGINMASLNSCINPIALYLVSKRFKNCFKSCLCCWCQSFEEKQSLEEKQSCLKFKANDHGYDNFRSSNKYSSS
The assay can be described thus: ET-1-induced intracellular calcium mobilization (Fluo-4) in HEK293/ETBR cells, antagonist mode. The class given is cell-based.

What is called IC50 is the midpoint of a concentration-inhibition curve. For `COc1cccc2c1cc([N+](=O)[O-])c1c(C(=O)O)cc3c(c12)OCO3` [Aristolochic acid A], the IC50 on ETA receptor (ETAR) is 7.91 µM; at ETB receptor (ETBR), 7.4 µM.
`CC(C)C[C@@H]1NC(=O)[C@@H](C(C)C)NC(=O)[C@@H]2CCCN2C(=O)[C@@H](CC(=O)O)NC(=O)[C@@H](Cc2c[nH]c3ccccc23)NC1=O` [BQ-123] (cyclo(L[dW][dD]P[dV])): the IC50 at ETA receptor (ETAR) worked out at 0.00027 µM.
`CCCC[C@@H](NC(=O)[C@@H](Cc1cn(C(=O)OC)c2ccccc12)NC(=O)[C@H](CC(C)(C)C)NC(=O)N1[C@H](C)CCC[C@@H]1C)C(=O)O` [BQ-788]: the concentration for half-maximal inhibition (IC50) at ETB receptor (ETBR) (read-out: IC50) was 5e-05 µM.
